Measured values taken from US12018006B2, “Method of producing EPD and analogues thereof” (priority 2017, dated 2024).

Experiments:
[1] = tested on: ovarian cancer cell line JC; assay: In vitro cytotoxic activity, Presto blue assay, ovarian cancer cell line JC; format: cell-based
Method: (§1) The cytotoxic activity of the compounds was tested using methods as described earlier (van Haaften et al. Journal of Experimental & Clinical Cancer Research (2015) 34:38). In short, 3×10^4 cells of the ovarian cancer cell line JC (Van Haaften-Day et al. Cancer Res. 1983) were seeded in 24-well plates (Costar, Denmark) in DMEM/F12 medium (Invitrogen) containing 10% of Fetal Calf Serum (FCS, Sigma), 50 U penicillin and 50 μg/mL streptomycin (Invitrogen). The cells were incubated at 37° C. in a 9% CO2 incubator with 95% humidity. After 24 hours, solutions 1-6 were added to the cell cultures.
(§2) Cytotoxic activity of each of the compounds was determined after 72 hours in a standard Presto blue assay (see Van Haaften et al. J Exp Clin Cancer Res. 2015 34(1): 38 for details on the method). Each compound's solution as described above was diluted 100, 200 and 400 times respectively.

normal fibroblasts = assay: Effect of synthetic EPD on growth of normal fibroblasts; format: cell-based; settings: FIG. 1B
Method: (§3) Further, the effect of synthetic EPD (1-3 μg/mL) was studied on normal fibroblasts and compared with the effect on a cervical cancer cell line Siha (FIG. 1B). […] At a concentration of 1 μg/mL, fibroblast growth was unaffected, whereas cancer cell growth was reduced by almost 20%. At a concentration of […], fibroblast growth was reduced by almost 20%, whereas cancer cell growth was reduced by more than 80%, and at a concentration of 3 μg/mL, fibroblast growth was reduced by 35%, whereas cancer cell growth was reduced by almost 97%.

[2] = tested on: ovarian cancer cell line A2780AD; assay: Growth of multi-drug resistant ovarian cancer cell line A2780AD after 72 hrs; format: cell-based, human; settings: for growth of the cell line, % of the control value: 72 hrs, control (medium) = 100%
Method: as §1, §2
Also the effect of synthetic EPD was tested on an ovarian cancer cell line A2780AD, ATCC using methods as described above, whereby the experiment was ended after 72 hrs. Cell line A2780AD, a multi-drug resistant human ovarian cancer cell line, is resistant to paclitaxel. It was shown that at 1, 1.5 and 2 μg/mL of synthetic EPD, the growth of the cell line after 72 hrs was reduced to 40%, 13% and 8% of the control value (100%, medium), respectively.

[3] = tested on: cervical cancer cell line Siha; assay: Effect of synthetic EPD on growth of cervical cancer cell line Siha; format: cell-based; settings: for cancer cell growth reduced by: Siha, FIG. 1B
Method: as §3

normal cells = settings: cited from earlier work
ovarian cancer = settings: cited from earlier work

C=C1C(=O)O[C@H]2CC3=CCCC[C@]3(C)C[C@@H]12 (relative stereo) [racemic mixture of the (mono) methyl analogue, (rel3aS,4aR,9aS)-4α-methyl-3-methylene-3a,4,4a,5,6,7,9,9a-octahydronaphtho[2,3-b]furan-2(3H)-one]
cytotoxic activity ([1]; JC cells, 72 hours, solutions diluted 100, 200 and 400 times, FIG. 1A, compared with natural EPD): demonstrates cytotoxic activity

C=C1C(=O)O[C@@H]2CC3=CCC[C@H](C)[C@@]3(C)C[C@H]12 (single isomer, unassigned) [synthetic EPD, eremophila-1(10)-11(13)-dien-12,8β-olide]
inhibition of JC cells compared with paclitaxel ([1]; JC as control cell line, FIG. 1C): at least as effective as paclitaxel
fibroblast growth (normal fibroblasts; synthetic EPD 1 μg/mL): unaffected
fibroblast growth reduced by (normal fibroblasts; synthetic EPD 2 μg/mL): ~20%
fibroblast growth reduced by (normal fibroblasts; synthetic EPD 3 μg/mL): 35%
growth of the cell line, % of the control value ([2]; 1 μg/mL): 40%
growth of the cell line, % of the control value ([2]; 1.5 μg/mL): 13%
growth of the cell line, % of the control value ([2]; 2 μg/mL): 8%
dose-dependent effect on cancer cells compared with fibroblasts ([3]; Siha vs normal fibroblasts, 1-3 μg/mL): much higher on cancer cells than on fibroblasts
cancer cell growth reduced by ([3]; synthetic EPD 1 μg/mL): ~20%
cancer cell growth reduced by ([3]; synthetic EPD 3 μg/mL): ~97%
cancer cell growth reduced by ([3]; synthetic EPD 2 g/mL): more than 80%

C=C1C(=O)O[C@@H]2CC3=CCC[C@H](C)[C@@]3(C)C[C@H]12 [EPD, eremophila-1(10)-11(13)-dien-12,8β-olide]
cytotoxic effects towards normal cells (normal cells): not towards normal cells
cytotoxic effects towards ovarian cancer (ovarian cancer): potent cytotoxic effects

CC(=O)O[C@H]1C(=O)[C@@]2(C)[C@H]([C@H](OC(=O)c3ccccc3)[C@]3(O)C[C@H](OC(=O)[C@H](O)[C@@H](NC(=O)c4ccccc4)c4ccccc4)C(C)=C1C3(C)C)[C@]1(OC(C)=O)CO[C@@H]1C[C@@H]2O [paclitaxel, reference compound]
resistance of cell line A2780AD to the drug ([2]; 0.375 μg/mL): full resistance
